Tests used:
[1] = Dissolution of salts of cisapride in artificial gastric juice; type: physicochemical
[2] = Dissolution of tablets at different pH-values, USP test <711>, USP-2 dissolution apparatus (paddle); type: physicochemical; conditions: conclusion in words
Protocol: The dissolution of tablets comprising cisapride-(L)-tartrate having the composition and prepared as described in Example 1 was compared with tablets comprising cisapride monohydrate instead of cisapride-(L)-tartrate (the rest of the composition and the preparation being the same) at different pH-values.
The test tablet was brought in a glass container containing 900 ml of the specified buffer at a temperature of 37 °C. The stirring is performed by a paddle at a rotational speed of 50 rpm (rotations per minute). This test is s set forth in USP test <711> in a USP-2 dissolution apparatus. This latter test is described in US Pharmacopeia XXII, pp 1578-1579. a) pH = ± 1.5 (HCl : 0.1 N)

clinical = conditions: in vivo; for tmax: po
Protocol: A standard breakfast consists of four slices of bread, one slice of ham, one slice of cheese, butter, jelly and two cups of coffee or tea with if desired milk and/or sugar, was served. […] Thereafter, subjects could resume their usual diet.
The trial medication was taken with 100 ml water.
Blood samples were taken until 48 h post-dosing.
AUClast area under the plasma concentration-time curve from time 0 to the last time point (last quantifiable concentration, calculated by linear trapezoidal summation. AUC∞ area under the plasma concentration-time extrapolated to infinity t½term terminal half-life, defined as 0.693/Sz

[3] = human, in vivo
Description: (AUC is the abbreviation of Area Under the Curve, which is an indication of the amount of active ingredient that is present in the blood).

[4] = formulations containing cisapride-(L)-tartrate release cisapride in a racemic form; cited from earlier work

## COc1cc(N)c(Cl)cc1C(=O)NC1CCN(CCCOc2ccc(F)cc2)CC1OC (racemic) [cisapride-(L)-tartrate]
[1]; compared with other salts of cisapride
  dissolution in artificial gastric juice: better dissolution
[2]; 0.1 N HCl (pH = ± 1.5)
  dissolution compared with cisapride monohydrate: comparable
[2]; pH 4.5
  dissolution compared with cisapride monohydrate: clearly better
[2]; pH = 6.5
  dissolution compared with cisapride monohydrate: clearly superior
clinical; human
  tmax: 2.1 ± 0.7 h
clinical; human, tmax
  tmax: 1.4 ± 0.4 h
clinical
  bioequivalence of the tartrate and monohydrate formulations: bioequivalent
  bioequivalence with respect to the total exposure (AUC∞): bioequivalence is demonstrated
  influence of fed or fasting conditions on absorption, peak levels and total exposure: little influence

## COc1cc(N)c(Cl)cc1C(=O)NC1CCN(CCCOc2ccc(F)cc2)CC1OC (racemic) [reference compound]
[1]; salt forms of cisapride
  dissolution compared with cisapride monohydrate: dissolve slower than the cisapride monohydrate itself

## COc1cc(N)c(Cl)cc1C(=O)N[C@H]1CCN(CCCOc2ccc(F)cc2)C[C@H]1OC (relative stereo) [cisapride monohydrate, cis-4-amino-5-chloro-N-[1-[3-(4-fluorophenoxy)propyl]-3-methoxy-4-piperidinyl]-2-methoxybenzamide, reference compound]
[3]
  ratio of AUC in fed state over AUC in fasted state: about 1.35
clinical; human
  higher exposure of cisapride in comparison with the fasting conditions: 29%
  higher peak levels of cisapride in comparison with the fasting conditions: 33%
  tmax: 2.3 ± 0.6 h
clinical; human, tmax
  tmax: 1.7 ± 0.5 h
clinical
  bioequivalence of the tartrate and monohydrate formulations: bioequivalent

## (+)-cisapride-(L)-tartrate
[4]
  dissolution rates of the diastereomeric salt forms: equal dissolution rates

## (-)-cisapride-(L)-tartrate
[4]
  dissolution rates of the diastereomeric salt forms: equal dissolution rates

Reference: patent publication EP0803251B1, “Immediate release pH-independent solid dosage form of cisapride” (JANSSEN PHARMACEUTICA N.V., priority 1996, dated 1997)
